Calls of active or inactive are those of the source. No cut-off for these calls is given here.
How the values were obtained:
[1] = Cytotoxicity against human HLC2 cells after 6 days by WST8 dye reduction assay; type: functional, cell-based; conditions: HLC2, 144 h
[2] = Cytotoxicity against human HLC2 cells after 3 days by WST8 dye reduction assay; type: functional, cell-based; conditions: HLC2, 72 h
[3] = Photochemical stability exposed to visible light in methanol assessed as conversion to (Z)-2,2-Dimethyl-8-(3-methyl-2-butenyl)-benzopyran-6-propenoic acid after 7 days; conditions: 168 h
[4] = test system: HuH13; experiment: Cytotoxicity against human HuH13 cells; type: functional, cell-based

Structure (SMILES)	IC50 [1]	IC50 [2]	Activity [3]	Activity [4]
CC(C)=CCc1cc(/C=C/C(=O)O)cc2c1OC(C)(C)C=C2 [CULIFOLIN]	100 µM	230 µM	71%	Active
CC(C)=CCc1cc(/C=C\C(=O)O)cc2c1OC(C)(C)C=C2	10 µM	34 µM	–	Active
